Consider 1 molecule from patent publication US9220703B2, “Composition and method for the protection of articular cartilage” (priority 2014, dated 2015).

The assay has as its system Mycobacterium tuberculosis (adjuvant) induced arthritis. The experiment in a line: Adjuvant induced arthritis in rats, histopathology of paw/ankle joint tissue. The assay is classed as in vivo, Albino Wistar rats. The settings on record: for Histopathology of rat paw tissue: articular cartilage / Histopathology of rat paw tissue: granulomas / Histopathology of rat paw tissue: synovial tissue: adjuvant arthritic rats, H&E stain. How it is done:
Pathological damage: Adjuvant induced arthritis in animal models
Animals used: Albino Wistar rats of either sex
Weight of the animals: 140-180 grams
Number of animals/group: 5
Methodology: Chronic arthritis was induced in rats by the injection of 0.05 mL of (0.5% w/v) suspension of killed Mycobacterium tuberculosis, homogenized in liquid paraffin in the left hind foot.
Right ankle joints of the animals in the control and treated groups were separated from the hind paw, weighed and immersed in 10% buffered formalin for 24 hours, followed by decalcification in 10% EDTA. The joints were then dehydrated, processed and paraffin (56 C-58 C) blocks were prepared, stained (hematoxylin and eosin) and examined under the compound microscope (Patel P, Patel D, Patel N. Experimental investigation of anti-rheumatoid activity of Pleurotus sajorcaju in adjuvant-induced arthritic rats. Chinese Journal of Natural Medicines, 2012; 10 (4): 0269-0274.

With `COc1cc(/C=C/C(=O)COC(=O)/C=C/c2ccc(O)c(OC)c2)ccc1O` [Calebin A], where the note is “Calebin A 10 mg/kg per oral”, the “Histopathology of rat paw tissue: articular cartilage” value is given as “intact articular cartilage with synovial tissue in the joint”; the “Histopathology of rat paw tissue: granulomas” value was “No granulomas were seen”; the “Histopathology of rat paw tissue: synovial tissue” value is “congested vascular spaces (Long-Arrows), scattered lymphocytes (Short-Arrow) and intact synovial lining”. Also, for the setting “Calebin A 20 mg/kg per oral”, the “Histopathology of rat paw tissue: articular cartilage” value is given as “intact articular cartilage with synovial tissue in the joint”; the “Histopathology of rat paw tissue: granulomas” value was “No granulomas were seen”; the “Histopathology of rat paw tissue: synovial tissue” value was “mild synovial epithelial hyperplasia (Short-Arrow), scattered lymphocytes (Long-Arrow) and intact vascular spaces”. In addition, the “Protection of articular cartilage (histopathological studies, overall)” value (arthritic rats, across doses) was “dose dependant protection of articular cartilage”.
